Assay results as given in PubChem BioAssay AID2128 (The Scripps Research Institute Molecular Screening Center, 2009).

Target: Beta-lactamase (Pseudomonas aeruginosa) (UniProt Q932Y6)
Test: VIM-2 metallo-beta-lactamase inhibition constant, late-stage follow-up, mechanism study, biochemical, probe results (AID 2128)
Conditions: purified enzyme, nitrocefin hydrolysis absorbance/fluorescence, enzyme assay, VIM-2 inhibition constant, kinetics

Q: With O=c1[nH]c2c(s1)C(c1cccnc1)C1C3CCC(C3)C1S2 (stereo unspecified) as the molecule, how does the Ki read?
A: 148 nM
